Where two headings read alike, the source gives them in different places. Bounds are passed on as bounds.

The assay concerns the target T1, Recombinant human cathepsin A (Homo sapiens, UniProt P10619).
T1 construct: Recombinant human cathepsin A (residues 29-480, with a C-terminal 10-His tag); 10-His (C); purchased R&D Systems 1049-SE
T1 sequence (P10619 29-312 limits assumed): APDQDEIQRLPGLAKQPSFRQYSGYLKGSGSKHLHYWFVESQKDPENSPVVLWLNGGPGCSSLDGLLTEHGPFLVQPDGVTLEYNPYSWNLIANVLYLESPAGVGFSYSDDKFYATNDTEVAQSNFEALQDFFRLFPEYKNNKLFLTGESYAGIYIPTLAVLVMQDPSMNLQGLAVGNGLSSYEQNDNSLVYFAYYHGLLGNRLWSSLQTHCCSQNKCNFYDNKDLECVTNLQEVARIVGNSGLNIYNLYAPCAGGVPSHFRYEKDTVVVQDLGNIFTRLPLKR
T1 sequence (P10619 327-480 limits assumed): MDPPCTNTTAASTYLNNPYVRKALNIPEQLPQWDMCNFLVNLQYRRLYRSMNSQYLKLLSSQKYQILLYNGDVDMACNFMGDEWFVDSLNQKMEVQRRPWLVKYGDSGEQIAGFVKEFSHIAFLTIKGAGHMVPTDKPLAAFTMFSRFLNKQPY
Put plainly: Cathepsin A inhibitory activity. The format is biochemical. The method, boiled down:
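Read-out was microfluidic separation of cleaved vs. uncleaved Bodipy FL-bradykinin (2 μM), giving turnover, % inhibition and IC50. Compound and 833 ng/ml enzyme met for 15 min RT in pH 5.5 MES/DTT before substrate (15 min RT). The 29-480 His-tagged human enzyme was first activated by cathepsin L, then E-64 (10 μM).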

Where [1] appears, read: read-out: Activity (2): Cathepsin A inhibitory activity (IC50 class).
Setting [2] is: read-out: Activity (2): Cathepsin A inhibitory activity, IC50 class.

A word on the IC50: it is the concentration at which inhibition is half-maximal. Regarding `CC(C)C(C)(O)COc1cc(C(=O)N[C@@H](CC(=O)O)c2cccc(Cl)c2)nn1-c1ccccc1F` (stereo partly drawn) [Example 785, (S)-3-(3-Chloro-phenyl)-3-{[1-(2-fluoro-phenyl)-5-(2-hydroxy-2,3-dimethyl-butoxy)-1H-pyrazole-3-carbonyl]-amino}-propionic acid], the IC50 under setting [1] is below 100 nM. On the same count and under the same terms, the figure for `CC(C)[C@@](C)(O)COc1cc(C(=O)NC(CC(=O)O)C2CCCCC2)nn1-c1ccccc1F` (stereo partly drawn) [Example 786, 3-Cyclohexyl-3-{[1-(2-fluoro-phenyl)-5-((R)-2-hydroxy-2,3-dimethyl-butoxy)-1H-pyrazole-3-carbonyl]-amino}-propionic acid] is below 100 nM. Turning to `Cc1ccc([C@H](CC(=O)O)NC(=O)c2cc(OCC(C)(O)C(C)C)n(-c3ccccc3F)n2)cc1` (stereo partly drawn) [Example 787, (S)-3-{[1-(2-Fluoro-phenyl)-5-(2-hydroxy-2,3-dimethyl-butoxy)-1H-pyrazole-3-carbonyl]-amino}-3-p-tolyl-propionic acid], the IC50 under setting [1] was below 100 nM. On the same count and under the same terms, the result for `Cc1ccc([C@H](CC(=O)O)NC(=O)c2cc(OC[C@H](O)C(C)(C)C)n(-c3ccccc3F)n2)cc1` [Example 788, (S)-3-{[1-(2-Fluoro-phenyl)-5-((R)-2-hydroxy-3,3-dimethyl-butoxy)-1H-pyrazole-3-carbonyl]-amino}-3-p-tolyl-propionic acid] reads below 100 nM; that for `CC(C)(C)[C@](C)(O)COc1cc(C(=O)N[C@@H](CC(=O)O)c2ccccc2Cl)nn1-c1ccccc1F` [Example 789, (S)-3-(2-Chloro-phenyl)-3-{[1-(2-fluoro-phenyl)-5-((S)-2-hydroxy-2,3,3-trimethyl-butoxy)-1H-pyrazole-3-carbonyl]-amino}-propionic acid], below 100 nM. Same read-out and setting: the figure for `CC(C)(C)[C@@](C)(O)COc1cc(C(=O)N[C@@H](CC(=O)O)c2ccccc2Cl)nn1-c1ccccc1F` [Example 790, (S)-3-(2-Chloro-phenyl)-3-{[1-(2-fluoro-phenyl)-5-((R)-2-hydroxy-2,3,3-trimethyl-butoxy)-1H-pyrazole-3-carbonyl]-amino}-propionic acid] is below 100 nM; for `Cc1ccc([C@H](CC(=O)O)NC(=O)c2cc(OCC(=O)C(C)(C)C)n(-c3ccccc3F)n2)cc1` [Example 791, (S)-3-{[5-(3,3-Dimethyl-2-oxo-butoxy)-1-(2-fluoro-phenyl)-1H-pyrazole-3-carbonyl]-amino}-3-p-tolyl-propionic acid] it is below 100 nM; for `Cc1cccc([C@H](CC(=O)O)NC(=O)c2cc(OC[C@@H](O)C(C)(C)C)n(-c3ccccc3F)n2)c1` [Example 792, (S)-3-{[1-(2-Fluoro-phenyl)-5-((S)-2-hydroxy-3,3-dimethyl-butoxy)-1H-pyrazole-3-carbonyl]-amino}-3-m-tolyl-propionic acid] it is below 100 nM. Still for that read-out and setting: the figure for `CC(C)(C)[C@@H](O)COc1cc(C(=O)N[C@@H](CC(=O)O)c2ccccc2Cl)nn1-c1ccccc1F` [Example 793, (S)-3-(2-Chloro-phenyl)-3-{[1-(2-fluoro-phenyl)-5-((R)-2-hydroxy-3,3-dimethyl-butoxy)-1H-pyrazole-3-carbonyl]-amino}-propionic acid] is below 100 nM. Turning to `CC(C)(C)[C@H](O)COc1cc(C(=O)N[C@@H](CC(=O)O)c2ccc(Cl)cc2)nn1-c1ccccc1F` [Example 794, (S)-3-(4-Chloro-phenyl)-3-{[1-(2-fluoro-phenyl)-5-((S)-2-hydroxy-3,3-dimethyl-butoxy)-1H-pyrazole-3-carbonyl]-amino}-propionic acid], the IC50 under setting [2] is below 100 nM.

As for `CC(C)(C)[C@@H](O)COc1cc(C(=O)N[C@@H](CC(=O)O)c2cccc(Cl)c2)nn1-c1ccccc1F` [Example 795, (S)-3-(3-Chloro-phenyl)-3-{[1-(2-fluoro-phenyl)-5-((R)-2-hydroxy-3,3-dimethyl-butoxy)-1H-pyrazole-3-carbonyl]-amino}-propionic acid], the concentration for half-maximal inhibition (IC50) under setting [2] is below 100 nM.

As to `CC(C)(C)C(=O)COc1cc(C(=O)N[C@@H](CC(=O)O)c2cccc(Cl)c2)nn1-c1ccccc1F` [Example 796, (S)-3-(3-Chloro-phenyl)-3-{[5-(3,3-dimethyl-2-oxo-butoxy)-1-(2-fluoro-phenyl)-1H-pyrazole-3-carbonyl]-amino}-propionic acid], the IC50 under setting [2] is below 100 nM. On to `CC(C)(C)[C@H](O)COc1cc(C(=O)N[C@@H](CC(=O)O)c2ccccc2Cl)nn1-c1ccccc1F` [Example 797, (S)-3-(2-Chloro-phenyl)-3-{[1-(2-fluoro-phenyl)-5-((S)-2-hydroxy-3,3-dimethyl-butoxy)-1H-pyrazole-3-carbonyl]-amino}-propionic acid], for which the IC50 under setting [2] was below 100 nM. Same read-out and setting: the figure for `CC(C)(C)[C@](C)(O)COc1cc(C(=O)N[C@@H](CC(=O)O)c2cccc(Cl)c2)nn1-c1ccccc1F` [Example 798, (S)-3-(3-Chloro-phenyl)-3-{[1-(2-fluoro-phenyl)-5-((S)-2-hydroxy-2,3,3-trimethyl-butoxy)-1H-pyrazole-3-carbonyl]-amino}-propionic acid] is below 100 nM; for `CC(C)(C)[C@](C)(O)COc1cc(C(=O)N[C@@H](CC(=O)O)c2ccccc2C(F)(F)F)nn1-c1ccccc1F` [Example 799, (S)-3-{[1-(2-Fluoro-phenyl)-5-((S)-2-hydroxy-2,3,3-trimethyl-butoxy)-1H-pyrazole-3-carbonyl]-amino}-3-(2-trifluoromethyl-phenyl)-propionic acid] it is below 100 nM; for `CC(C)(C)[C@H](O)COc1cc(C(=O)N[C@@H](CC(=O)O)c2cccc(Cl)c2Cl)nn1-c1ccccc1F` [Example 800, (S)-3-(2,3-Dichloro-phenyl)-3-{[1-(2-fluoro-phenyl)-5-((S)-2-hydroxy-3,3-dimethyl-butoxy)-1H-pyrazole-3-carbonyl]-amino}-propionic acid] it is below 100 nM. Still for that read-out and setting: the result for `Cc1ccc([C@H](CC(=O)O)NC(=O)c2cc(OC[C@@H](O)C(C)(C)C)n(-c3ccccc3F)n2)cc1` [Example 801, (S)-3-{[1-(2-Fluoro-phenyl)-5-((S)-2-hydroxy-3,3-dimethyl-butoxy)-1H-pyrazole-3-carbonyl]-amino}-3-p-tolyl-propionic acid] reads below 100 nM; that for `COc1cccc([C@H](CC(=O)O)NC(=O)c2cc(OCC(C)(O)C(C)C)n(-c3ccccc3F)n2)c1` (stereo partly drawn) [Example 802, (S)-3-{[1-(2-Fluoro-phenyl)-5-(2-hydroxy-2,3-dimethyl-butoxy)-1H-pyrazole-3-carbonyl]-amino}-3-(3-methoxy-phenyl)-propionic acid], below 100 nM.

Turning to `CC(C)[C@](C)(O)COc1cc(C(=O)NC(CC(=O)O)C2CCCCC2)nn1-c1ccccc1F` (stereo partly drawn) [Example 803, 3-Cyclohexyl-3-{[1-(2-fluoro-phenyl)-5-((S)-2-hydroxy-2,3-dimethyl-butoxy)-1H-pyrazole-3-carbonyl]-amino}-propionic acid], the IC50 reads like this: under setting [2], below 100 nM; (recombinant human cathepsin A 833 ng/ml, Bodipy FL-labeled bradykinin 2 μM, pH 5.5, read-out: CATH-A IC50) 26.7 nM. As to `Cc1cccc([C@H](CC(=O)O)NC(=O)c2cc(OC[C@H](O)C(C)(C)C)n(-c3ccccc3F)n2)c1` [Example 804, (S)-3-{[1-(2-Fluoro-phenyl)-5-((R)-2-hydroxy-3,3-dimethyl-butoxy)-1H-pyrazole-3-carbonyl]-amino}-3-m-tolyl-propionic acid], under setting [2], the IC50 was below 100 nM. Same read-out and setting: the figure for `Cc1cccc([C@H](CC(=O)O)NC(=O)c2cc(OCC(=O)C(C)(C)C)n(-c3ccccc3F)n2)c1` [Example 805, (S)-3-{[5-(3,3-Dimethyl-2-oxo-butoxy)-1-(2-fluoro-phenyl)-1H-pyrazole-3-carbonyl]-amino}-3-m-tolyl-propionic acid] is below 100 nM; for `COc1cccc([C@H](CC(=O)O)NC(=O)c2cc(OC[C@](C)(O)C(C)C)n(-c3ccccc3F)n2)c1` [Example 806, (S)-3-{[1-(2-Fluoro-phenyl)-5-((R)-2-hydroxy-2,3-dimethyl-butoxy)-1H-pyrazole-3-carbonyl]-amino}-3-(3-methoxy-phenyl)-propionic acid] it is below 100 nM.

As for `CC(C)C(C)(O)COc1cc(C(=O)N[C@@H](CC(=O)O)c2cccc(C#N)c2)nn1-c1ccccc1F` (stereo partly drawn) [Example 807, (S)-3-(3-Cyano-phenyl)-3-{[1-(2-fluoro-phenyl)-5-(2-hydroxy-2,3-dimethyl-butoxy)-1H-pyrazole-3-carbonyl]-amino}-propionic acid], under setting [2], the IC50 is below 100 nM. With `CC(C)C(C)(O)COc1cc(C(=O)N[C@@H](CC(=O)O)c2c(F)cccc2F)nn1-c1ccccc1F` (stereo partly drawn) [Example 808, (S)-3-(2,6-Difluoro-phenyl)-3-{[1-(2-fluoro-phenyl)-5-(2-hydroxy-2,3-dimethyl-butoxy)-1H-pyrazole-3-carbonyl]-amino}-propionic acid], the IC50 under setting [2] is below 100 nM. The same measure, in the same setting: the result for `CC(C)(C)[C@H](O)COc1cc(C(=O)N[C@@H](CC(=O)O)c2cccc(Cl)c2)nn1-c1ccccc1F` [Example 809, (S)-3-(3-Chloro-phenyl)-3-{[1-(2-fluoro-phenyl)-5-((S)-2-hydroxy-3,3-dimethyl-butoxy)-1H-pyrazole-3-carbonyl]-amino}-propionic acid] reads below 100 nM.

The values above are taken from patent US8664257B2, “Oxygen-substituted 3-heteroaroylamino-propionic acid derivatives and their use as pharmaceuticals” (Sanofi, priority 2010, dated 2014).
